The text below walks through data of US20110251252A1, “BIOMARKERS FOR MDM2 INHIBITORS FOR USE IN TREATING DISEASE” (THE REGENTS OF THE UNIVERSITY OF MICHIGAN, priority 2010, published 2011).

Common to all, as to format: cell-based, human
The test system of assay [1] is p53 expression in resistant AML blasts with absent p53 expression. In words: Ex vivo AML blasts epigenetic and MDM2 inhibitor apoptosis assay. Conditions: alone or in combination, followed by MI-219; four AML cases with absent or very low p53 mRNA. The procedure: Blasts enriched to >90% purity using methods detailed above were incubated with either DMSO or 0.5 μM 5-azacytidine (A2385, Sigma-Aldrich, Saint Louis, Mo.) for 48 hours (with 5-azacytidine replenished every 24 hours). During the last 12 hours of incubation, blasts were further aliquoted and treated with either 0.3 μM Trichostatin A (#9950, Cell Signaling Technology, Danvers, Mass.) or DMSO. At the end of the 48 hour incubation, each of the four differentially treated subgroups of blasts were treated with MI-219 at final concentrations of 0, 2.5, 5 and 10 μM for 40 hours, followed by annexin-V/PI FACS-based analysis of apoptosis. Aliquots of blasts in parallel were cultured in a 48-well plate at 10^6 cells per well in 1 ml of medium and treated with 10 μM MI-219 or solvent for 8 hours. Blasts were harvested, lysed and protein prepared for immunoblotting as described.
Attempting to obtain evidence for epigenetic p.53 gene silencing in AML with absent p53 mRNA expression, four AML cases were selected based on the availability of cryopreserved cells with absent or very low p53 mRNA for further analysis and treated purified blasts with trichostatin A and azacytidine (alone or in combination) followed by treatment with MI-219. Readouts for these experiments was the fraction of blasts undergoing apoptosis and posttreatment p53 protein levels. […]

For a further assay, the system named is AML-193. In words: MI-219 apoptosis induction in AML cell lines. Conditions: AML-193 AML cell line, p53 (exon5-9) mut. The protocol:
(§1) Next—the ability of MI-219 to induce apoptosis in 19 AML-derived cell lines was assessed.

Another assay concerns AP-1060. The assay is described as follows: MI-219 apoptosis induction in AML cell lines. To be noted: AP-1060 AML cell line, p53 wt. The procedure:
as §1

In the next assay the test system is GF-D8. The assay is described as follows: MI-219 apoptosis induction in AML cell lines. Conditions: GF-D8 AML cell line, p53 (exon5-9) mut. The protocol: as §1
Another assay deals with HL60. The assay is described as follows: MI-219 apoptosis induction in AML cell lines. Conditions: HL60 AML cell line, p53 deleted. The protocol:
as §1

Another assay has as its system KG-1. The assay is described as follows: MI-219 apoptosis induction in AML cell lines. Conditions: KG-1 AML cell line, p53 (exon5-9) mut. The protocol:
as §1

For a further assay, the system named is Kasumi-1. The assay is described as follows: MI-219 apoptosis induction in AML cell lines. To be noted: Kasumi-1 AML cell line, p53 (exon5-9) mut. The protocol:
as §1

For the next assay, the system named is Kasumi-3. The assay is described as follows: MI-219 apoptosis induction in AML cell lines. Conditions: Kasumi-3 AML cell line, p53 (exon5-9) mut. The protocol:
as §1

The next assay deals with ME-1. In words: MI-219 apoptosis induction in AML cell lines. Conditions: ME-1 AML cell line, p53 (exon5-9) mut. The procedure:
as §1

The next assay deals with ML-2. The assay is described as follows: MI-219 apoptosis induction in AML cell lines. Conditions: ML-2 AML cell line, p53 wt. The protocol: as §1
In a further assay the test system is MOLM-13. The assay is described as follows: MI-219 apoptosis induction in AML cell lines. To be noted: MOLM-13 AML cell line, p53 wt. The procedure: as §1
Another assay relates to MOLM-16. The assay is described as follows: MI-219 apoptosis induction in AML cell lines. To be noted: MOLM-16 AML cell line, p53 (exon5-9) mut. The protocol: as §1
In a further assay the test system is MONO-MAC-6. In words: MI-219 apoptosis induction in AML cell lines. Conditions: MONO-MAC-6 AML cell line, p53 (exon5-9) mut. The procedure:
as §1

The next assay relates to MUTZ-2. In words: MI-219 apoptosis induction in AML cell lines. To be noted: MUTZ-2 AML cell line, p53 wt. The procedure:
as §1

For a further assay, the system named is OCI-AML-2. In words: MI-219 apoptosis induction in AML cell lines. Conditions: OCI-AML-2 AML cell line, p53 wt. The procedure:
as §1

In the next assay the test system is OCI-AML-3. In words: MI-219 apoptosis induction in AML cell lines. Conditions: OCI-AML-3 AML cell line, p53 wt. The protocol: as §1
A further assay deals with OCI-AML-5. The assay is described as follows: MI-219 apoptosis induction in AML cell lines. To be noted: OCI-AML-5 AML cell line, p53 wt. The protocol: as §1
A further assay relates to OCI-M2. In words: MI-219 apoptosis induction in AML cell lines. To be noted: OCI-M2 AML cell line, p53 (exon5-9) mut. The procedure:
as §1

In the next assay the test system is SIG-M5. In words: MI-219 apoptosis induction in AML cell lines. Conditions: SIG-M5 AML cell line, p53 wt. The procedure:
as §1

The subject of a further assay is SKM-1. In words: MI-219 apoptosis induction in AML cell lines. Conditions: SKM-1 AML cell line, p53 (exon5-9) mut. The procedure:
as §1

For a further assay, the system named is p53. The assay is described as follows: p53 immunoblot of AML cell lines after MI-219 treatment.
The next assay has as its system AML blasts. In words: Ex vivo AML blasts MDM2 inhibitor apoptosis assay (annexin-V/PI FACS). The procedure:
Blasts enriched to >90% purity using methods detailed above were incubated in serum-supplemented RPMI medium at 2.5×10^5 cells in 100 μl final volume in the presence of various concentrations of the MDM2 inhibitors MI-219 and MI-63 (range 0.625-20 μM) for 40 hours. Apoptosis and necrosis was measured for each treated blast aliquot using annexin-V/PI FACS-based readouts and values subsequently normalized to spontaneous death rates in untreated parallel cultures according to the formula (% alive=% mean alive treated samples/% mean alive paired non-treated samples).
To evaluate the efficacy of MDM2 inhibitor-mediated apoptotic cell kill in AML blasts ex vivo, blasts from 109 AML specimens (97 with wild type p53 and 12 with mutant p53 by exon 5-9 exon sequence analysis) were purified to >90% purity and cell aliquots were incubated for 40 hours with escalating concentrations of the MDM2 inhibitors MI-219 (N=109) and MI-63 (N=60). The apoptotic cell fraction in treated samples was subsequently quantitated through annexin V-PI-based FACS analysis and normalized to measurements in paired untreated cells.

Where [2] appears, read: ex vivo, blasts from 109 patients.

Read-outs that look alike come from different tables or passages of the source. Some results are limits rather than exact numbers.

`Nc1ncn([C@@H]2O[C@H](CO)[C@@H](O)[C@H]2O)c(=O)n1` [Azacytidine, 5-azacytidine]: in [1], the “p53 expression after treatment” value is “Does Not Induce p53 Expression”.
What is called IC50 is the point on the concentration scale where inhibition reaches its midpoint. In the case of `COc1ccc(C2=N[C@@H](c3ccc(Cl)cc3)[C@@H](c3ccc(Cl)cc3)N2C(=O)N2CCNC(=O)C2)c(OC(C)C)c1` [Nutlin, reference compound], the IC50 in the assay on AML-193 is greater than 10 µM; in the assay on AP-1060, 6.77 µM; in the assay on GF-D8, greater than 10 µM; with HL60, greater than 10 µM; in the assay on KG-1 it was greater than 10 µM; in the assay on Kasumi-1, greater than 10 µM. Also, the IC50 in the assay on Kasumi-3 is greater than 10 µM; with ME-1 it was greater than 10 µM; in the assay on ML-2, 10.4 µM; in the assay with MOLM-13, 4040 nM; in the assay on MOLM-16 it was greater than 10 µM; with MONO-MAC-6, greater than 10 µM. Further, the IC50 with MUTZ-2 is 951 nM; in the assay on OCI-AML-2, 7.22 µM; in the assay with OCI-AML-3, greater than 10 µM; with OCI-AML-5 it was greater than 10 µM; in the assay with OCI-M2 it was greater than 10 µM; with SIG-M5 it was 4.73 µM. The IC50 in the assay with SKM-1 was greater than 10 µM.
As for `CC(/C=C/C(=O)NO)=C\[C@@H](C)C(=O)c1ccc(N(C)C)cc1` [Trichostatin A], the “p53 expression after treatment” value in assay [1] is reported as “Does Not Induce p53 Expression”.
In the case of `CC(C)(C)C[C@H]1N[C@@H](C(=O)NCCN2CCOCC2)[C@H](c2cccc(Cl)c2F)[C@@]12C(=O)Nc1cc(Cl)ccc12` [MI-63], the IC50 with AML-193 is greater than 10 µM; in the assay with AP-1060, 4.03 µM; with GF-D8, greater than 10 µM; with HL60, greater than 10 µM; in the assay on KG-1, greater than 10 µM; in the assay on Kasumi-1 it was greater than 10 µM. For the same compound, the IC50 was greater than 10 µM with Kasumi-3; greater than 10 µM in the assay on ME-1; 7.47 µM in the assay on ML-2; 2860 nM in the assay on MOLM-13; greater than 10 µM in the assay with MOLM-16; greater than 10 µM in the assay with MONO-MAC-6. Also, the IC50 in the assay with MUTZ-2 is 1170 nM; in the assay on OCI-AML-2 it was 4.74 µM; with OCI-AML-3, greater than 10 µM; in the assay on OCI-AML-5, greater than 10 µM; with OCI-M2, greater than 10 µM; in the assay with SIG-M5, 3.8 µM. The compound further came in with an IC50 with SKM-1 greater than 10 µM.
In the case of `CC(C)(C)C[C@H]1N[C@@H](C(=O)NCC[C@H](O)CO)[C@H](c2cccc(Cl)c2)[C@@]12C(=O)Nc1cc(Cl)c(F)cc12.Cl` [MI-219], the IC50 with AML-193 is greater than 20 µM; in the assay with AP-1060 it was 4.22 µM; with GF-D8 it was greater than 20 µM; with HL60, greater than 20 µM; in the assay with KG-1, greater than 20 µM; in the assay on Kasumi-1 it was greater than 20 µM. In addition, the IC50 was greater than 20 µM in the assay on Kasumi-3; greater than 20 µM in the assay on ME-1; 7.04 µM in the assay on ML-2; 2660 nM with MOLM-13; greater than 20 µM in the assay on MOLM-16; greater than 20 µM with MONO-MAC-6. The IC50 in the assay on MUTZ-2 was 1280 nM; in the assay with OCI-AML-2, 5.25 µM; in the assay with OCI-AML-3, 18.2 µM; in the assay on OCI-AML-5 it was 13.8 µM; in the assay on OCI-M2, greater than 20 µM; in the assay on SIG-M5, 3.44 µM. For the same compound, the IC50 in the assay with SKM-1 is greater than 20 µM; in the assay on AML blasts (all AML with wild type p53 exon 5-9, read-out: threshold IC50 value at the 25th percentile), 1.78 µM; in the assay with AML blasts (all AML with wild type p53 exon 5-9, read-out: threshold IC50 value at the 50th percentile) it was 3.2 µM; in the assay on AML blasts (previously untreated AML cases, exclusive of p53 exon 5-9 mutations, read-out: mean IC50) it was 6.6 µM; in the assay with AML blasts (primary AML, exclusive of cases with p53 exon 5-9 mutations, 40 hours, read-out: mean IC50) it was 6.1 µM; with AML blasts (relapsed AML cases, exclusive of p53 exon 5-9 mutations, read-out: mean IC50) it was 4.4 µM. Besides, the IC50 with AML blasts (secondary AML, exclusive of cases with p53 exon 5-9 mutations, 40 hours, read-out: mean IC50) was 7.9 µM; in the assay on AML blasts (tAML, exclusive of cases with p53 exon 5-9 mutations, 40 hours, read-out: mean IC50), 4.8 µM. Besides, the “p53 immunoblot (MI-219 10 μM)” value is listed as “Inducible” in the assay with p53 (AP-1060); “non-inducible” with p53 (GF-D8); “non-inducible” in the assay with p53 (Kasumi-1); “non-inducible” in the assay on p53 (Kasumi-3); “Inducible” in the assay on p53 (ML-2); “Inducible” in the assay on p53 (MOLM-13). Besides, the “p53 immunoblot (MI-219 10 μM)” value in the assay on p53 (MOLM-16) is listed as “non-inducible”; in the assay with p53 (MONO-MAC-6), “non-inducible”; with p53 (MUTZ-2) it was “Inducible”; in the assay on p53 (OCI-AML-2), “Inducible”; in the assay on p53 (OCI-AML-3), “Inducible”; with p53 (OCI-AML-5) it was “Inducible”. The “p53 immunoblot (MI-219 10 μM)” value was “non-inducible” in the assay with p53 (OCI-M2), “Inducible” in the assay with p53 (SIG-M5) and “non-inducible” in the assay with p53 (SKM-1). Further, the “fraction of AML cases with wild type p53 with IC50>10 μM” value with AML blasts (21/97 cases) was 22%. Further, the “fraction of AML cases with wild type p53 exon 5-9 that were very sensitive (IC50<2 μM)” value in the assay with AML blasts (32/97 cases) was determined as 33%. In addition, the “fraction of AML cases with wild type p53 with IC50>5 μM” value in the assay on AML blasts (32/97 cases) was determined as 33%. In addition, in the assay with AML blasts (33/97 cases), the “fraction of AML cases with wild type p53 exon 5-9 that were sensitive (IC50>2 μM to <5 μM)” value is recorded as 34%. For the same compound, the “fraction of AML samples with FLT3-ITD with IC50 <2 μM” value with AML blasts (FLT3-ITD, N=19) came to 58%. Also, the “fraction of AML samples with FLT3-ITD with IC50 <5 μM” value with AML blasts (FLT3-ITD, N=19) was 84%. Further, the “fraction of AML cases with unmutated p53 with primary resistance” value with AML blasts (setting [2]) is roughly 30%. In addition, the “sensitivity of AML cases with mutated p53” value in the assay on AML blasts (setting [2]) is reported as “resistant”.
